Measurements taken from paper PMC10043345, “Discovery of BAR502, as potent steroidal antagonist of leukemia inhibitory factor receptor for the treatment of pancreatic adenocarcinoma” (Frontiers in Oncology, 2023).
Values joined by “and” are separate entries in the source; they are usually repeats but may differ in a detail not shown here. Identical values can stand only once.

What was measured:
human GPBAR1 = biological target: T1, human GPBAR1 (Homo sapiens, UniProt Q8TDU6); assay: GPBAR1 transactivation (CRE-luciferase) in HEK-293T cells; format: cell-based
T1 construct: expressed in transfected cells; host or cells: HEK-293T
T1 sequence (Q8TDU6 1-330): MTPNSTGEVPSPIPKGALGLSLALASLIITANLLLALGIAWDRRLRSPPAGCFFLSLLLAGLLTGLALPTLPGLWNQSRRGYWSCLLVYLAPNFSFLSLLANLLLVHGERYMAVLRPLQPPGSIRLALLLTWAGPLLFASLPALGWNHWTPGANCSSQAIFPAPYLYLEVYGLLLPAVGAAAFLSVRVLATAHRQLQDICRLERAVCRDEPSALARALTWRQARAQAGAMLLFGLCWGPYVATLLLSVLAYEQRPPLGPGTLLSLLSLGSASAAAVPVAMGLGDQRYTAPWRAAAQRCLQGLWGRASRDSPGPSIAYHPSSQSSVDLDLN

LIF/LIFR complex = biological target: T2, LIF/LIFR complex (Homo sapiens, UniProt P42702); assay: Alpha Screen inhibition of LIFR/LIF binding (cell-free); settings: for IC50: cell-free, LIFR 4.5 nM, biotinylated LIF 9 nM, read-out: LIFR IC50 AlphaScreen (inhibition of LIFR/LIF binding)
T2 construct: purchased Sino Biological (LIFR); R&D Systems (LIF)
T2 sequence (P42702 45-833 limits assumed): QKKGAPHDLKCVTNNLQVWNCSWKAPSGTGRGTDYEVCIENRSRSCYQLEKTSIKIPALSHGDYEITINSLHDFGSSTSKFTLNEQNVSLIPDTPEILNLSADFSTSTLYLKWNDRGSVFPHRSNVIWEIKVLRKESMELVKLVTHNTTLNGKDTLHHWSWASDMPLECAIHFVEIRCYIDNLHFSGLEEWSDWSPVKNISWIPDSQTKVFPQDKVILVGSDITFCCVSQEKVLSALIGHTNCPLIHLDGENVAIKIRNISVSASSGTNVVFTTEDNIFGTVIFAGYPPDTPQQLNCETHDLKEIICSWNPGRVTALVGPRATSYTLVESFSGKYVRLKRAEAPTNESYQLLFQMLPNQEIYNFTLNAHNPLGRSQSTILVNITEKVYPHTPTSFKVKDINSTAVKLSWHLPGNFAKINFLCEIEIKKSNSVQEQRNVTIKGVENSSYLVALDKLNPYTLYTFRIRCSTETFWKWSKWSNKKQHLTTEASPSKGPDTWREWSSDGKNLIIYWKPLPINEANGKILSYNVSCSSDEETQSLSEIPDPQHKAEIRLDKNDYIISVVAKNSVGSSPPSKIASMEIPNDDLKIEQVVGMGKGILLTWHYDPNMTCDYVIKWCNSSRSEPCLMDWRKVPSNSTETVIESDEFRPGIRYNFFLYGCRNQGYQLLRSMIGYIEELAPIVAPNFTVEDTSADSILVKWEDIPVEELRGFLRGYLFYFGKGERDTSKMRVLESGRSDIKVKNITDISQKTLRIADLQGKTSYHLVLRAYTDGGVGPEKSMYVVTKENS
Description: Recombinant human LIFR (His Tag) and biotinylated recombinant human LIF were purchased from Sino Biologicals (Sino Biological Europe GmbH, Dusseldorf, Germany) and R&D Systems (Abingdon, UK), respectively, and both were reconstituted as required by the manufacturer. […] The assay was carried out in white, low-volume, 384-well AlphaPlates (PerkinElmer, Waltham, MA, USA) using a final volume of 25 µL and an assay buffer containing 25 mM Hepes (pH 7.4), 100 mM NaCl, and 0.005% Kathon. The concentration of DMSO in each well was maintained at 5%. […] Then, LIF was added (biotinylated, final concentration 9 nM), and the samples were incubated for 15 min prior to adding His-Tag acceptor beads (final concentration 20 ng/µL) for 30 min. Then, streptavidin donor beads were added (final concentration 20 ng/µL), and the plate was incubated in the dark for 2 h and then read in an EnSpire Alpha multimode plate reader (PerkinElmer, Waltham, MA, USA).

Structure (SMILES)	EC50 (human GPBAR1; transactivation, agonism, read-out: GPBAR1 EC50 Transact)	IC50 (LIF/LIFR complex)	IC50 (human GPBAR1; Hek293T, transactivation induced by TLCA (10 μM), read-out: Hek293T GPBAR1 Antagonism IC50)	effect on LIF/LIFR complex formation (LIFR antagonism), in words (LIF/LIFR complex; cell-free Alpha Screen)
CC[C@H]1[C@@H](O)C2C3CC[C@H]([C@H](C)CCO)[C@@]3(C)CCC2[C@@]2(C)CC[C@@H](O)C[C@@H]12 (some centres unmarked) [BAR502]	0.4 ± 0.1 µM	3.6 µM and 3.59 µM		
OCc1ccc(-c2ccc(OCc3cc(-c4c(Cl)cccc4Cl)no3)cc2)cc1 [PDL103, (4’-((3-(2,6-dichlorophenyl)isoxazol-5-yl)methoxy)-[1,1’-biphenyl]-4-yl)methanol]		97.5 ± 29.3 µM	19 µM	inactive
